# Test results reported in patent US5733929A, “Pharmaceutical composition for treating or preventing allergic rhinitis” (Takeda Chemical Industries, Ltd., priority 1993, dated 1998).
# Where a name gives a salt, the structure may show the parent alone.
# How the values were obtained:
# [1] = system: intranasal pressure increase induced by inhalation of antigens; test: Experiment 5: intranasal pressure increase induced by inhalation of antigens in actively sensitized (involving IgE participation) guinea pigs; type: in vivo; settings: p.o.; for Internasal pressure increase AUC(0-30 min): 5% G.A. 339 ± 55
# Method: Hartley male guinea pigs weighing 300 to 400 g (Nippon SLC, Shizuoka, Japan) were anesthetized with pentobarbital (30 mg/kg, i.p.) and fixed on their backs. The cervical part was opened along the median line, the trachea was opened for maintaining respiration, and a cannula was inserted. A tube (JMS cutdown tube, 2.5 mm in outer diameter and 3.5 cm in length) was inserted from the opened site of the trachea into the nasal cavity. The other end of the tube was connected to a respirator (Harvard respirator, model 683), and air was sent into the nasal cavity at a tidal volume of 4 ml and a respiration rate of 70/min. Aerosol of U-46619 (30 μg/ml) solution was prepared using an ultrasonic nebulizer and sent into the nasal cavity for 3 minutes. Changes of the intranasal pressure were determined with a differential pressure transducer connected to the branch of the tube. To prevent air leakage into the oral cavity, the oral cavity was closed with an adhesive (Aron alpha, trade name). Effects on intranasal pressure increase induced by inhalation of antigens in actively sensitized (involving IgE participation) guinea pigs Hartley male guinea pigs weighing 300 to 400 g (Nippon SLC, Shizuoka, Japan) were immunized by a modified method of the method of Levine et al. Sensitization was carried out by intraperitoneally administering physiological saline (1 ml) containing ovalbumin (OA)(10 μg) and aluminium hydroxide gel (5 mg) 4 times every 2 weeks. The sensitized guinea pigs were used one week after the final administration. These guinea pigs were anesthetized with pentobarbital (30 mg/kg, i.p.). In a similar manner to that described in Experiment 4, changes of intranasal pressure were determined. Aerosol of OA (3%) was prepared using an ultrasonic nebulizer provided between the respirator and the intranasal tube, and sent into the nasal cavity for 3 minutes. The test drug was suspended in 5% G.A. solution and orally administered one hour before the OA inhalation.
# [2] = system: intranasal pressure increase induced by antigen inhalation; test: Experiment 6: intranasal pressure increase induced by antigen inhalation in guinea pigs sensitized by antigen inhalation; type: in vivo; settings: p.o.; for Increase of intranasal pressure AUC(0-25 min): 5% G.A. 278 ± 35
# Method: Hartley male guinea pigs weighing 300 to 400 g (Nippon SLC, Shizuoka, Japan) were anesthetized with pentobarbital (30 mg/kg, i.p.) and fixed on their backs. The cervical part was opened along the median line, the trachea was opened for maintaining respiration, and a cannula was inserted. A tube (JMS cutdown tube, 2.5 mm in outer diameter and 3.5 cm in length) was inserted from the opened site of the trachea into the nasal cavity. The other end of the tube was connected to a respirator (Harvard respirator, model 683), and air was sent into the nasal cavity at a tidal volume of 4 ml and a respiration rate of 70/min. Aerosol of U-46619 (30 μg/ml) solution was prepared using an ultrasonic nebulizer and sent into the nasal cavity for 3 minutes. Changes of the intranasal pressure were determined with a differential pressure transducer connected to the branch of the tube. To prevent air leakage into the oral cavity, the oral cavity was closed with an adhesive (Aron alpha, trade name). Effects on intranasal pressure increase induced by antigen inhalation in guinea pigs sensitized by antigen inhalation Aerosol of 1% OA solution in physiological saline was prepared and administered to Hartley male guinea pigs weighing 300 to 400 g (Nippon SLC, Shizuoka, Japan) by inhalation for 10 minutes. One week later, inhalation was performed again for sensitization. These animals were used as sensitized animals. In a similar manner to that described in Experiment 4, intranasal pressure was determined. The test drug was suspended in 5% G.A. solution and orally administered one hour before the antigen induction.
# [3] = target: T1, human platelet-derived TXA2 receptor (Homo sapiens, UniProt P21731); test: binding of U-46619 to human platelet-derived TXA2 receptor expressing cells (TCHO-25), receptor assay
# T1 construct: expressed in transfected cells
# T1 sequence (P21731 1-343): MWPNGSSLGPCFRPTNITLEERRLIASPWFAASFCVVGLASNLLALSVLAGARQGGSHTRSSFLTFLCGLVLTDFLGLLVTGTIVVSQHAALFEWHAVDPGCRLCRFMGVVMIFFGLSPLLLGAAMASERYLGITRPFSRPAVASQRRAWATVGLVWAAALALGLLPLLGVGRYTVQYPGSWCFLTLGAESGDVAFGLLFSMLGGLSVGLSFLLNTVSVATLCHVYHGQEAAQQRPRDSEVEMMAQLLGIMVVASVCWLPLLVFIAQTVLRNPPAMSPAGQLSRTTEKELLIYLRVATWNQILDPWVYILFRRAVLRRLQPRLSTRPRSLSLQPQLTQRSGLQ
# Excerpt: Effects on the binding of U-46619 (11-9-epoxymethane-PGH2, a substance having thromboxane A2 -like activity) to human platelet-derived TXA2 receptor expressing cells
# A vector containing cDNA encoding TXA2 receptor (TXA2 .cndot.R) and a vector containing cDNA encoding dihydrofolate reductase were mixed in a ratio of 10:1, and are transferred simultaneously to Chinese hamster ovary (CHO) cells by the calcium phosphate method. Two days later, these cells were inoculated into a medium containing 0.3 mM proline, 10% bovine fetus serum and 0.1 μM methotrexate in a concentration of 2000 cells/well and incubated.
# allergic rhinitis = test: Experiment 2: effects of perfusion in nasal cavities on allergic rhinitis in guinea pigs (pigment leakage); type: in vivo; settings: 5 mg/kg perfused in nasal cavity; increase Period-3 minus Period-1; 16 animals; 5% G.A. 13.83 ± 2.61
# Method: Effects of perfusion in nasal cavities on allergic rhinitis in guinea pigs
# Aerosol of 1% ovalbumin (OA) solution in physiological saline was prepared using an ultrasonic nebulizer (TUR-3200, Nippon Kohden, Tokyo, Japan), and administered to Hartley male guinea pigs weighing 300 to 350 g (Seiwa Jikken Dohbutsu, Fukuoka, Japan) by inhalation for 10 minutes in a polyacrylamide box (20×28×20 cm) once a week (twice in all). Thus the guinea pigs were sensitized. One week after the sensitization, the guinea pigs were anesthetized with pentobarbital sodium (30 mg/kg, i.p.) and fixed on their backs on a thermal pad (Deltaphase isothermal pad, Braintree Scientific, Inc.). The cervical part was opened along the median line, the trachea was opened, a trachea cannula was inserted into the pulmonary side, and the esophagus was ligated. On the other hand, a polyethylene tube (5.5 cm in length, 2.3 mm in outer diameter, Hibiki) connected to an infusion pump was inserted at the nasal side into the choana. […] The resulting perfusion solution was centrifuged at 15,000× g for 1.5 minutes, and the amount of the pigment in the supernatant was determined by absorbance at 610 nm. The activity of the drug was evaluated using as an indication the increased amount of the leaked pigment at Period-3 (i.e., (the amount of the pigment at Period-3)--(the amount of the pigment at Period-1)).
# ICR male mice = test: oral toxicity in mice; type: in vivo; settings: 1000 mg/kg, five ICR male mice (5 weeks old), 7 days
# Excerpt: The compounds to be used as an active ingredient in the present invention have low toxicity. […] The compound to be used as an active ingredient in the present invention can be used as it is or as a pharmaceutical composition (e.g., tablets, granules, capsules including soft capsules and microcapsules, liquid preparations, injections, suppositories, nasal drops, eye drops, etc.) prepared by mixing the compound with a per se known pharmaceutically acceptable carrier, diluent, excipient, etc., for treating or preventing allergic rhinitis, particularly nasal congestion in a mammal. The administration route may be oral or parenteral. The dose varies with the subject to be administered, administration route, symptoms, etc. For example, for oral administration to an adult patient, a unit dose of normally about 0.1 mg/kg to 20 mg/kg body weight, preferably 0.1 mg/kg to 10 mg/kg body weight is advantageously administered about once or twice a day.
# [4] = system: allergic experimental rhinitis; test: Experiment 1: inhibitory effects on allergic experimental rhinitis in guinea pigs (pigment leakage after antigen perfusion); type: in vivo; settings: 30 mg/kg, oral, 1 hour before antigen
# Method: Inhibitory effects on allergic experimental rhinitis in guinea pigs
# Hartley male guinea pigs weighing 350 to 450 g were used. Aerosol of 1% ovalbumin (OA) in physiological saline was prepared using an ultrasonic nebulizer and administered to the guinea pigs by inhalation for 10 minutes. Thus the guinea pigs were sensitized. One week later, the antigen was administered again by inhalation, and the guinea pigs were used for this experiment after one week. The following experiment procedures were carried out by reference to the method of Kojima et al. (Allergy, Vol. 35, p. 180-187 (1986)).
# The sensitized guinea pigs were anesthetized by administering pentobarbital (30 mg/kg) intraperitoneally. […] The collected sample was centrifuged at 3000 rpm for 10 minutes, and the absorbance of the supernatant at 620 nm was measured with a spectrophotometer to calculate the pigment concentration.
# The drug was suspended in 5% gum arabic (G.A.) solution and was orally administered 1 hour before the antigen induction. The inhibitory ratio (%) was calculated as a ratio of the amount of the leaked pigment to the maximum amount of the leaked pigment in the control group 10 minutes after the antigen induction. […]
smiles,measurement,setting,value
"CN1CCCC(n2nc(Cc3ccc(Cl)cc3)c3ccccc3c2=O)CC1 (stereo not shown) [Azelastine hydrochloride, reference compound]",Internasal pressure increase AUC(0-30 min),"[1]; 1.0 mg/kg, 8 animals, **P < 0.01",92 ± 14
same,Inhibitory ratio (%),"[1]; 1.0 mg/kg, AUC(0-30 min), 8 animals",73%
same,Increase of intranasal pressure AUC(0-25 min),"[2]; 1.0 mg/kg, 7 animals, marked **",157 ± 35
same,Inhibitory ratio (%),"[2]; 1.0 mg/kg, AUC(0-25 min), 7 animals",44%
"CC1=C(C)C(=O)C(C(CCCCCC(=O)O)c2ccccc2)=C(C)C1=O (racemic) [Compound 1, (±)-7-(3,5,6-trimethyl-1,4-benzoquinon-2-yl)-7-phenylheptanoic acid]",inhibition of the binding of U-46619 to TXA2 receptor (mode),[3]; TCHO-25 cells,competitively inhibited
same,Internasal pressure increase AUC(0-30 min),"[1]; 0.3 mg/kg, 12 animals",208 ± 44
same,Internasal pressure increase AUC(0-30 min),"[1]; 3.0 mg/kg, 12 animals",241 ± 32
same,Internasal pressure increase AUC(0-30 min),"[1]; 30 mg/kg, 13 animals, *P < 0.05",183 ± 36
same,Pigment concentration,allergic rhinitis,8.87 ± 2.47 µg/mL
same,mortality,ICR male mice,no mice died
same,Increase of intranasal pressure AUC(0-25 min),"[2]; 0.3 mg/kg, 7 animals",246 ± 44
same,Increase of intranasal pressure AUC(0-25 min),"[2]; 3.0 mg/kg, 8 animals",201 ± 41
same,Increase of intranasal pressure AUC(0-25 min),"[2]; 30 mg/kg, 7 animals, *P < 0.05",143 ± 19
"CCCCC[C@H](O)/C=C/[C@@H]1[C@@H](C/C=C\CCCC(=O)O)[C@H]2CO[C@@H]1C2 [Compound U-46619, 11-9-epoxymethane-PGH2, reference compound]",Kd,"[3]; U-46619 based on TXA2 receptor on TCHO-25 cells, read-out: dissociation constant",0.031 µM
COc1ccc(CN(CCN(C)C)c2ccccn2)cc1 [Mepyramine],Inhibitory ratio (%),"[4]; Table 1, 9 animals",81%
same,Inhibitory ratio (%),"[4]; Table 2, 10 animals, **P < 0.01",77%
